In ChEMBL document CHEMBL3351686, “Facile and diastereoselective synthesis of 3,2'-spiropyrrolidine-oxindoles derivatives, their molecular docking and antiproliferative activities” (2015):
In brackets after ≈: the same amount, converted by molar mass.

Tests used:
[1] = system: Shigella flexneri; assay: Antibacterial activity against Shigella flexneri MTCC 1457 assessed as inhibition of visual growth after 24 hrs; assay type: functional; settings: MTCC 1457, 24 h
[2] = system: Malassezia pachydermatis; assay: Antifungal activity against Malassezia pachydermatis assessed as inhibition of visual growth after 48 to 72 hrs; assay type: functional
[3] = system: Salmonella typhimurium; assay: Antibacterial activity against Salmonella typhimurium MTCC 1251 assessed as inhibition of visual growth after 24 hrs; assay type: functional, Salmonella enterica subsp. enterica serovar Typhimurium; settings: Salmonella enterica, MTCC 1251, 24 h
[4] = system: Staphylococcus epidermidis; assay: Antibacterial activity against Staphylococcus epidermidis MTCC 3615 assessed as inhibition of visual growth after 24 hrs; assay type: functional; settings: MTCC 3615, 24 h
[5] = system: Klebsiella aerogenes; assay: Antibacterial activity against Enterobacter aerogenes MTCC 111 assessed as inhibition of visual growth after 24 hrs; assay type: functional; settings: MTCC 111, 24 h
[6] = system: Proteus vulgaris; assay: Antibacterial activity against Proteus vulgaris MTCC 1771 assessed as zone of inhibition at 1 mg/disc after 24 hrs by disc diffusion method; assay type: functional
[7] = system: Staphylococcus aureus; assay: Antibacterial activity against Staphylococcus aureus MTCC 96 assessed as inhibition of visual growth after 24 hrs; assay type: functional; settings: MTCC 96, 24 h
[8] = system: Staphylococcus aureus; assay: Antibacterial activity against methicillin-resistant Staphylococcus aureus assessed as inhibition of visual growth after 24 hrs; assay type: functional
[9] = system: Klebsiella pneumoniae; assay: Antibacterial activity against Klebsiella pneumoniae MTCC 109 assessed as inhibition of visual growth after 24 hrs; assay type: functional; settings: MTCC 109, 24 h
[10] = system: Candida albicans; assay: Antifungal activity against Candida albicans MTCC 227 assessed as inhibition of visual growth after 48 to 72 hrs; assay type: functional
[11] = system: Proteus vulgaris; assay: Antibacterial activity against Proteus vulgaris MTCC 1771 assessed as inhibition of visual growth after 24 hrs; assay type: functional; settings: MTCC 1771, 24 h
[12] = system: Micrococcus luteus; assay: Antibacterial activity against Micrococcus luteus MTCC 106 assessed as inhibition of visual growth after 24 hrs; assay type: functional; settings: MTCC 106, 24 h
[13] = system: Micrococcus luteus; assay: Antibacterial activity against Micrococcus luteus MTCC 106 assessed as zone of inhibition at 1 mg/disc after 24 hrs by disc diffusion method; assay type: functional
[14] = system: Staphylococcus aureus; assay: Antibacterial activity against methicillin-resistant Staphylococcus aureus assessed as zone of inhibition at 1 mg/disc after 24 hrs by disc diffusion method; assay type: functional
[15] = system: Shigella flexneri; assay: Antibacterial activity against Shigella flexneri MTCC 1457 assessed as zone of inhibition at 1 mg/disc after 24 hrs by disc diffusion method; assay type: functional
[16] = system: Klebsiella aerogenes; assay: Antibacterial activity against Enterobacter aerogenes MTCC 111 assessed as zone of inhibition at 1 mg/disc after 24 hrs by disc diffusion method; assay type: functional
[17] = system: Staphylococcus epidermidis; assay: Antibacterial activity against Staphylococcus epidermidis MTCC 3615 assessed as zone of inhibition at 1 mg/disc after 24 hrs by disc diffusion method; assay type: functional
[18] = system: Staphylococcus aureus; assay: Antibacterial activity against Staphylococcus aureus MTCC 96 assessed as zone of inhibition at 1 mg/disc after 24 hrs by disc diffusion method; assay type: functional
[19] = system: Salmonella typhimurium; assay: Antibacterial activity against Salmonella typhimurium MTCC 1251 assessed as zone of inhibition at 1 mg/disc after 24 hrs by disc diffusion method; assay type: functional, Salmonella enterica subsp. enterica serovar Typhimurium
[20] = system: Klebsiella pneumoniae; assay: Antibacterial activity against Klebsiella pneumoniae MTCC 109 assessed as zone of inhibition at 1 mg/disc after 24 hrs by disc diffusion method; assay type: functional
[21] = system: Malassezia pachydermatis; assay: Antifungal activity against Malassezia pachydermatis assessed as zone of inhibition at 1 mg/disc after 48 hrs by disc diffusion method; assay type: functional
[22] = system: Candida albicans; assay: Antifungal activity against Candida albicans MTCC 227 assessed as zone of inhibition at 1 mg/disc after 48 hrs by disc diffusion method; assay type: functional

`N#C[C@]1(C(=O)c2c[nH]c3ccccc23)C2CSCN2[C@]2(C(=O)N(Cc3ccccc3)c3ccccc32)[C@@H]1c1cn(-c2ccccc2)nc1-c1ccccc1` (stereo partly drawn) gave an MIC [1] of 500 µg/mL (≈ 692 µM), an MIC [2] of 500 µg/mL (≈ 692 µM) and an MIC [3] of 250 µg/mL (≈ 346 µM). For the same compound, the MIC [4] was 125 µg/mL (≈ 173 µM), the MIC [5] was 250 µg/mL (≈ 346 µM) and the “inhibition zone (IZ)” value [6] was 10 mm. It also gave an MIC [7] of 62.5 µg/mL (≈ 86.5 µM), an MIC [8] of 500 µg/mL (≈ 692 µM) and an MIC [9] of 250 µg/mL (≈ 346 µM). For the same compound, the MIC [10] was 500 µg/mL (≈ 692 µM), the MIC [11] was 500 µg/mL (≈ 692 µM) and the MIC [12] was 250 µg/mL (≈ 346 µM).

For `C#CCN1C(=O)[C@]2(c3ccccc31)[C@H](c1cn(-c3ccccc3)nc1-c1ccccc1)[C@@](C#N)(C(=O)c1c[nH]c3ccccc13)C1CSCN12` (stereo partly drawn), the “inhibition zone (IZ)” value [13] was 8 mm, the “inhibition zone (IZ)” value [6] was 9 mm and the “inhibition zone (IZ)” value [14] was 13 mm. For the same compound, the “inhibition zone (IZ)” value [15] was 14 mm.

`CN1C(=O)[C@]2(c3ccccc31)[C@H](c1cn(-c3ccccc3)nc1-c1ccccc1)[C@@](C#N)(C(=O)c1c[nH]c3ccccc13)C1CCCN12` (stereo partly drawn) was tested, and the MIC [1] was 250 µg/mL (≈ 398 µM), the “inhibition zone (IZ)” value [16] was 10 mm and the “inhibition zone (IZ)” value [13] was 8 mm. It also gave an MIC [3] of 500 µg/mL (≈ 795 µM), an MIC [4] of 250 µg/mL (≈ 398 µM) and an MIC [5] of 250 µg/mL (≈ 398 µM). For the same compound, the “inhibition zone (IZ)” value [17] was 12 mm, the “inhibition zone (IZ)” value [18] was 9 mm and the “inhibition zone (IZ)” value [6] was 12 mm. The “inhibition zone (IZ)” value [19] was 13 mm, the MIC [7] was 250 µg/mL (≈ 398 µM) and the MIC [8] was 125 µg/mL (≈ 199 µM). The MIC [9] was 500 µg/mL (≈ 795 µM), the “inhibition zone (IZ)” value [14] was 10 mm and the “inhibition zone (IZ)” value [15] was 9 mm. For the same compound, the “inhibition zone (IZ)” value [20] was 11 mm, the MIC [11] was 250 µg/mL (≈ 398 µM) and the MIC [12] was 500 µg/mL (≈ 795 µM).

In the case of `CCCCN1C(=O)[C@]2(c3ccccc31)[C@H](c1cn(-c3ccccc3)nc1-c1ccccc1)[C@@](C#N)(C(=O)c1c[nH]c3ccccc13)C1CCCN12` (stereo partly drawn), the “inhibition zone (IZ)” value [16] is reported as 11 mm, the “inhibition zone (IZ)” value [13] is reported as 9 mm and the MIC [3] is reported as 125 µg/mL (≈ 186 µM). For the same compound, the MIC [4] was 62.5 µg/mL (≈ 93.2 µM), the MIC [5] was 500 µg/mL (≈ 745 µM) and the “inhibition zone (IZ)” value [17] was 10 mm. For the same compound, the “inhibition zone (IZ)” value [18] was 11 mm, the “inhibition zone (IZ)” value [6] was 10 mm and the “inhibition zone (IZ)” value [19] was 8 mm. For the same compound, the MIC [7] was 125 µg/mL (≈ 186 µM), the MIC [8] was 500 µg/mL (≈ 745 µM) and the MIC [9] was 250 µg/mL (≈ 373 µM). The MIC [10] was 500 µg/mL (≈ 745 µM), the “inhibition zone (IZ)” value [14] was 12 mm and the “inhibition zone (IZ)” value [15] was 10 mm. The “inhibition zone (IZ)” value [20] was 9 mm, the MIC [11] was 250 µg/mL (≈ 373 µM) and the MIC [12] was 500 µg/mL (≈ 745 µM).

For `CN1C[C@](C#N)(C(=O)c2c[nH]c3ccccc23)[C@@H](c2cn(-c3ccccc3)nc2-c2ccccc2)[C@@]12C(=O)Nc1ccc([N+](=O)[O-])cc12`, the “inhibition zone (IZ)” value [16] was 15 mm, the MIC [2] was 500 µg/mL (≈ 789 µM) and the “inhibition zone (IZ)” value [13] was 18 mm. The MIC [3] was 500 µg/mL (≈ 789 µM), the MIC [4] was 500 µg/mL (≈ 789 µM) and the MIC [5] was 500 µg/mL (≈ 789 µM). The “inhibition zone (IZ)” value [17] was 15 mm, the “inhibition zone (IZ)” value [18] was 19 mm and the “inhibition zone (IZ)” value [6] was 14 mm. The “inhibition zone (IZ)” value [19] was 12 mm, the MIC [7] was 250 µg/mL (≈ 395 µM) and the MIC [8] was 125 µg/mL (≈ 197 µM). For the same compound, the “inhibition zone (IZ)” value [21] was 8 mm, the “inhibition zone (IZ)” value [22] was 13 mm and the MIC [9] was 500 µg/mL (≈ 789 µM). The MIC [10] was 250 µg/mL (≈ 395 µM), the “inhibition zone (IZ)” value [14] was 18 mm and the “inhibition zone (IZ)” value [15] was 20 mm. The “inhibition zone (IZ)” value [20] was 17 mm, the MIC [11] was 250 µg/mL (≈ 395 µM) and the MIC [12] was 250 µg/mL (≈ 395 µM).

With `C#CCN1C(=O)[C@]2(c3ccccc31)[C@H](c1cn(-c3ccccc3)nc1-c1ccccc1)[C@@](C#N)(C(=O)c1c[nH]c3ccccc13)C1CCCN12` (stereo partly drawn) the MIC [1] was 500 µg/mL (≈ 766 µM), the “inhibition zone (IZ)” value [16] was 12 mm and the “inhibition zone (IZ)” value [13] was 10 mm. The MIC [3] was 125 µg/mL (≈ 191 µM), the MIC [4] was 125 µg/mL (≈ 191 µM) and the MIC [5] was 250 µg/mL (≈ 383 µM). The “inhibition zone (IZ)” value [17] was 11 mm, the “inhibition zone (IZ)” value [18] was 10 mm and the “inhibition zone (IZ)” value [6] was 13 mm. For the same compound, the “inhibition zone (IZ)” value [19] was 10 mm, the MIC [7] was 500 µg/mL (≈ 766 µM) and the MIC [8] was 250 µg/mL (≈ 383 µM). For the same compound, the “inhibition zone (IZ)” value [21] was 9 mm, the “inhibition zone (IZ)” value [22] was 10 mm and the MIC [9] was 250 µg/mL (≈ 383 µM). For the same compound, the “inhibition zone (IZ)” value [14] was 8 mm, the “inhibition zone (IZ)” value [15] was 8 mm and the “inhibition zone (IZ)” value [20] was 12 mm. For the same compound, the MIC [11] was 250 µg/mL (≈ 383 µM) and the MIC [12] was 500 µg/mL (≈ 766 µM).
